Experimental data as given in patent publication US9144238B2, “Active compound combinations” (BAYER INTELLECTUAL PROPERTY GMBH, priority 2011, dated 2015).
Where two headings read alike, the source gives them in different places.

Legend:
Sphaerotheca fuliginea = experiment: Sphaerotheca test (cucumbers)/preventive; assay type: in vivo
Protocol: (§1) To produce a suitable preparation of active compound, 1 part by weight of active compound is mixed with the stated amounts of solvent and emulsifier, and the concentrate is diluted with water to the desired concentration.
To test for preventive activity, young plants are sprayed with the preparation of active compound at the stated rate of application. After the spray coating has dried on, the plants are inoculated with an aqueous spore suspension of Sphaerotheca fuliginea. The plants are then placed in a greenhouse at approximately 23° C. and a relative atmospheric humidity of approximately 70%.
The test is evaluated 7 days after the inoculation. 0% means an efficacy which corresponds to that of the untreated control, while an efficacy of 100% means that no disease is observed.
(§2) The test is evaluated 10 days after the inoculation. 0% means an efficacy which corresponds to that of the untreated control, while an efficacy of 100% means that no disease is observed.

Venturia inaequalis = experiment: Venturia test (apples)/preventive; assay type: in vivo; details: Venturia inaequalis, 240 h, read-out: Efficacy in % found; for pest or weed control at 25 ppm: Table 10, 25 ppm a.i.; for pest or weed control at 50 ppm: Table 11, 50 ppm a.i.
Protocol: as §1
To test for preventive activity, young plants are sprayed with the preparation of active compound at the stated rate of application. After the spray coating has dried on, the plants are inoculated with an aqueous conidia suspension of the causal agent of apple scab (Venturia inaequalis) and then remain for 1 day in an incubation cabinet at approximately 20° C. and a relative atmospheric humidity of 100%.
The plants are then placed in a greenhouse at approximately 21° C. and a relative atmospheric humidity of approximately 90%.
as §2

Alternaria solani = experiment: whole plant or invertebrate; assay type: in vivo; details: for Efficacy in % found: in vivo
Botrytis cinerea = experiment: Botrytis test (beans)/preventive; assay type: in vivo
Protocol: as §1
To test for preventive activity, young plants are sprayed with the preparation of active compound. After the spray coating has dried on, 2 small pieces of agar covered with growth of Botrytis cinerea are placed on each leaf. The inoculated plants are placed in a darkened chamber at 20° C. and a relative atmospheric humidity of 100%.
2 days after the inoculation, the size of the lesions on the leaves is evaluated. 0% means an efficacy which corresponds to that of the untreated control, while an efficacy of 100% means that no disease is observed.
as §2

Phytophthora infestans = experiment: whole plant or invertebrate; assay type: in vivo; details: Phytophthora infestans, 72 h, tomatoes; for pest or weed control at 10 ppm: 10 ppm a.i.; for pest or weed control at 0.01 ppm: 0.01 ppm a.i.; for pest or weed control at 0.0025 ppm: 0.0025 ppm a.i.; for pest or weed control at 0.005 ppm: 0.005 ppm a.i.
[1] = pH 2.3
Protocol: (§3) Measurement of log P values was performed according EEC directive 79/831 Annex V.A8 by HPLC (High Performance Liquid
(§4) Chromatography) on reversed phase columns with the following methods:
(§5) ^[a]Measurement was done at pH 2.3 with 0.1% phosphoric acid and acetonitrile as eluent.

[2] = Alternaria solani, 72 h, read-out: Efficacy in % found
[3] = read-out: Efficacy in % found, Table 2
[4] = read-out: Efficacy in % found, Table 3
[5] = read-out: Efficacy in % found, Table 1
[6] = read-out: Efficacy in % found, Table 4
[7] = read-out: Efficacy in % found, Table 5

Protocol for physchem: as §3, §4, §5

O=C(Nc1ccccc1-c1ccc(Cl)cc1)c1cccnc1Cl [2.2, boscalid]
Efficacy in % found (Sphaerotheca fuliginea; Table 13, 25 ppm a.i.): 67% | pest or weed control at 12.5 ppm (Venturia inaequalis; Table 10, 12.5 ppm a.i.): 66%

O=C1c2ccccc2C(=O)N1SC(Cl)(Cl)Cl [5.16, folpet]
pest or weed control at 10 ppm (Venturia inaequalis; Table 11, 10 ppm a.i.): 43% | pest or weed control at 5 ppm (Alternaria solani; [2]): 21% | Efficacy in % found (Botrytis cinerea; Table 12, 10 ppm a.i.): 31% | pest or weed control at 5 ppm (Phytophthora infestans; read-out: Efficacy in % found, Table 2, 5 ppm a.i.): 3% | pest or weed control at 10 ppm (Phytophthora infestans; [3]): 3%

Cc1cc(C)nc(Nc2ccccc2)n1 [7.7, pyrimethanil]
pest or weed control at 20 ppm (Alternaria solani; [2]): 4% | Efficacy in % found (Botrytis cinerea; Table 12, 10 ppm a.i.): 15% | pest or weed control at 10 ppm (Phytophthora infestans; [4]): 10%

C#CCOc1ccccc1C1CC(c2csc(C3CCN(C(=O)Cn4nc(C(F)F)cc4C(F)F)CC3)n2)=NO1 (stereo not shown) [(I-1), 2-[3,5-bis(difluoromethyl)-1H-pyrazol-1-yl]-1-[4-(4-{5-[2-(prop-2-yn-1-yloxy)phenyl]-4,5-dihydro-1,2-oxazol-3-yl}-1,3-thiazol-2-yl)piperidin-1-yl]ethanone]
Efficacy in % found (Sphaerotheca fuliginea; Table 13, 50 ppm a.i.): 0% | pest or weed control at 25 ppm (Venturia inaequalis): 0% | pest or weed control at 100 ppm (Venturia inaequalis; Table 10, 100 ppm a.i.): 8% | pest or weed control at 50 ppm (Venturia inaequalis): 0% | pest or weed control at 100 ppm (Venturia inaequalis; Table 11, 100 ppm a.i.): 0% | pest or weed control at 50 ppm (Alternaria solani; [2]): 21% | pest or weed control at 100 ppm (Alternaria solani; [2]): 0% | chromatographic logP (physchem; pH 2.7): 3.24 | chromatographic logP (physchem; pH 7.8): 3.34 | Efficacy in % found (Botrytis cinerea; Table 12, 25 ppm a.i.): 15% | Efficacy in % found (Botrytis cinerea; Table 12, 50 ppm a.i.): 15% | pest or weed control at 0.01 ppm (Phytophthora infestans; [5]): 0% | pest or weed control at 0.0025 ppm (Phytophthora infestans; [3]): 52% | pest or weed control at 0.01 ppm (Phytophthora infestans; [3]): 42% | pest or weed control at 0.01 ppm (Phytophthora infestans; [4]): 29% | pest or weed control at 0.01 ppm (Phytophthora infestans; [6]): 15% | pest or weed control at 0.0025 ppm (Phytophthora infestans; [7]): 64%

C#CCOc1cccc(F)c1C1CC(c2csc(C3CCN(C(=O)Cn4nc(C(F)F)cc4C(F)F)CC3)n2)=NO1 (stereo not shown) [(I-5), 2-[3,5-bis(difluoromethyl)-1H-pyrazol-1-yl]-1-[4-(4-{5-[2-fluoro-6-(prop-2-yn-1-yloxy)phenyl]-4,5-dihydro-1,2-oxazol-3-yl}-1,3-thiazol-2-yl)piperidin-1-yl]ethanone]
pest or weed control at 50 ppm (Venturia inaequalis): 0% | pest or weed control at 100 ppm (Venturia inaequalis; Table 11, 100 ppm a.i.): 0% | pest or weed control at 50 ppm (Alternaria solani; [2]): 15% | Efficacy in % found (Alternaria solani): 29% | chromatographic logP (physchem; pH 2.7): 3.15 | chromatographic logP (physchem; pH 7.8): 3.18 | Efficacy in % found (Botrytis cinerea; Table 12, 25 ppm a.i.): 10% | Efficacy in % found (Botrytis cinerea; Table 12, 100 ppm a.i.): 38% | pest or weed control at 0.01 ppm (Phytophthora infestans; [5]): 62% | pest or weed control at 0.005 ppm (Phytophthora infestans; [3]): 43%

C#CCOc1cccc(Cl)c1C1CC(c2csc(C3CCN(C(=O)Cn4nc(C(F)F)cc4C(F)F)CC3)n2)=NO1 (stereo not shown) [(I-6), 2-[3,5-bis(difluoromethyl)-1H-pyrazol-1-yl]-1-[4-(4-{5-[2-chloro-6-(prop-2-yn-1-yloxy)phenyl]-4,5-dihydro-1,2-oxazol-3-yl}-1,3-thiazol-2-yl)piperidin-1-yl]ethanone]
chromatographic logP [1]: 3.51 | Efficacy in % found (Sphaerotheca fuliginea; Table 13, 50 ppm a.i.): 0% | pest or weed control at 25 ppm (Venturia inaequalis): 0% | pest or weed control at 100 ppm (Venturia inaequalis; Table 10, 100 ppm a.i.): 4% | pest or weed control at 50 ppm (Venturia inaequalis): 13% | pest or weed control at 100 ppm (Venturia inaequalis; Table 11, 100 ppm a.i.): 38% | pest or weed control at 25 ppm (Alternaria solani; [2]): 30% | pest or weed control at 50 ppm (Alternaria solani; [2]): 35% | pest or weed control at 100 ppm (Alternaria solani; [2]): 41% | Efficacy in % found (Alternaria solani): 29% | chromatographic logP (physchem; pH 2.7): 3.4 | pest or weed control at 0.005 ppm (Phytophthora infestans; [6]): 35% | pest or weed control at 0.0025 ppm (Phytophthora infestans; [7]): 73%

mancozeb [5.23]
Efficacy in % found (Alternaria solani): 0% | Efficacy in % found (Botrytis cinerea; Table 12, 5 ppm a.i.): 0%
